# Measured values reported in PubChem BioAssay (NCI).
#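 Cultured in 96-well plates, cells were exposed to test compound for 48 hours across five concentrations. GI50 = concentration required for 50% inhibition of growth. TGI: concentration producing complete growth inhibition.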
# Assays:
# Test in all cases: DTP human tumour cell line panel, 48 h
# OVCAR-4 ovarian = system: OVCAR-4 ovarian
# T-47D breast = system: T-47D breast
# NCI-H226 lung = system: NCI-H226 lung
# COLO 205 colon = system: COLO 205 colon
# A498 renal = system: A498 renal
# RPMI-8226 leukemia = system: RPMI-8226 leukemia
# CCRF-CEM leukemia = system: CCRF-CEM leukemia
# SW-620 colon = system: SW-620 colon
# U251 CNS = system: U251 CNS
# SF-539 CNS = system: SF-539 CNS
# NCI-H460 lung = system: NCI-H460 lung
# HOP-92 NSCLC = system: HOP-92 NSCLC
# HCT-116 colon = system: HCT-116 colon
# TK-10 renal = system: TK-10 renal
# OVCAR-5 ovarian = system: OVCAR-5 ovarian
# LOX IMVI melanoma = system: LOX IMVI melanoma
# MDA-MB-435 = system: MDA-MB-435
# KM12 colon = system: KM12 colon
# SK-MEL-28 melanoma = system: SK-MEL-28 melanoma
# K-562 leukemia = system: K-562 leukemia
# OVCAR-8 ovarian = system: OVCAR-8 ovarian
# MOLT-4 leukemia = system: MOLT-4 leukemia
# HOP-62 NSCLC = system: HOP-62 NSCLC
# RXF 393 renal = system: RXF 393 renal
# 786-0 renal = system: 786-0 renal
# BT-549 breast = system: BT-549 breast
# MDA-MB-468 breast = system: MDA-MB-468 breast
# SK-MEL-5 melanoma = system: SK-MEL-5 melanoma
# SR leukemia = system: SR leukemia
# CAKI-1 renal = system: CAKI-1 renal
# SK-OV-3 ovarian = system: SK-OV-3 ovarian
# A549 NSCLC = system: A549 NSCLC
# HCC-2998 colon = system: HCC-2998 colon
# MALME-3M melanoma = system: MALME-3M melanoma
# EKVX NSCLC = system: EKVX NSCLC
# HL-60(TB) leukemia = system: HL-60(TB) leukemia
# PC-3 prostate = system: PC-3 prostate
# OVCAR-3 ovarian = system: OVCAR-3 ovarian
# IGROV1 ovarian = system: IGROV1 ovarian
# NCI/ADR-RES ovarian = system: NCI/ADR-RES ovarian
# SN12C renal = system: SN12C renal
# HS 578T breast = system: HS 578T breast
# ACHN renal = system: ACHN renal
# DU-145 prostate = system: DU-145 prostate
# MCF7 breast = system: MCF7 breast
# HT29 colon = system: HT29 colon
# HCT-15 colon = system: HCT-15 colon
# SNB-19 CNS = system: SNB-19 CNS
# SF-268 CNS = system: SF-268 CNS
# UACC-62 melanoma = system: UACC-62 melanoma
# SF-295 CNS = system: SF-295 CNS
# NCI-H522 lung = system: NCI-H522 lung
# NCI-H23 lung = system: NCI-H23 lung
# M14 melanoma = system: M14 melanoma
smiles,measurement,setting,value
C[C@H]1[C@@H](CC(=O)N[C@@H](Cc2coc3ccccc23)B(O)O)O[C@@H]2OC3(C)CC[C@H]4[C@H](C)CC[C@@H]1[C@@]24OO3,GI50,OVCAR-4 ovarian,2.6 µM
same,TGI,OVCAR-4 ovarian,68.5 µM
same,GI50,T-47D breast,0.749 µM
same,TGI,T-47D breast,3.03 µM
same,GI50,NCI-H226 lung,0.876 µM
same,TGI,NCI-H226 lung,2.14 µM
same,GI50,COLO 205 colon,1.89 µM
same,TGI,COLO 205 colon,8.9 µM
same,GI50,A498 renal,2.28 µM
same,TGI,A498 renal,9.8 µM
same,GI50,RPMI-8226 leukemia,0.267 µM
same,TGI,RPMI-8226 leukemia,1.42 µM
same,GI50,CCRF-CEM leukemia,0.322 µM
same,TGI,CCRF-CEM leukemia,5.38 µM
same,GI50,SW-620 colon,0.362 µM
same,TGI,SW-620 colon,10.2 µM
same,GI50,U251 CNS,2.14 µM
same,TGI,U251 CNS,10.5 µM
same,GI50,SF-539 CNS,1.05 µM
same,TGI,SF-539 CNS,2.47 µM
same,GI50,NCI-H460 lung,2.46 µM
same,TGI,NCI-H460 lung,12 µM
same,GI50,HOP-92 NSCLC,1.34 µM
same,TGI,HOP-92 NSCLC,4.09 µM
same,GI50,HCT-116 colon,0.783 µM
same,TGI,HCT-116 colon,2.29 µM
same,GI50,TK-10 renal,1.64 µM
same,TGI,TK-10 renal,> 71 µM
same,GI50,OVCAR-5 ovarian,1.65 µM
same,TGI,OVCAR-5 ovarian,7.12 µM
same,GI50,LOX IMVI melanoma,0.892 µM
same,TGI,LOX IMVI melanoma,1.99 µM
same,GI50,MDA-MB-435,0.287 µM
same,TGI,MDA-MB-435,1.51 µM
same,GI50,KM12 colon,1.98 µM
same,TGI,KM12 colon,6.32 µM
same,GI50,SK-MEL-28 melanoma,1.2 µM
same,TGI,SK-MEL-28 melanoma,3.63 µM
same,GI50,K-562 leukemia,1.14 µM
same,TGI,K-562 leukemia,13.8 µM
same,GI50,OVCAR-8 ovarian,2.08 µM
same,TGI,OVCAR-8 ovarian,11.7 µM
same,GI50,MOLT-4 leukemia,0.267 µM
same,TGI,MOLT-4 leukemia,3.54 µM
same,GI50,HOP-62 NSCLC,2.26 µM
same,TGI,HOP-62 NSCLC,8.31 µM
same,GI50,RXF 393 renal,0.259 µM
same,TGI,RXF 393 renal,1.12 µM
same,GI50,786-0 renal,2.84 µM
same,TGI,786-0 renal,15.1 µM
same,GI50,BT-549 breast,0.556 µM
same,TGI,BT-549 breast,1.8 µM
same,GI50,MDA-MB-468 breast,0.917 µM
same,TGI,MDA-MB-468 breast,2.57 µM
same,GI50,SK-MEL-5 melanoma,1.13 µM
same,TGI,SK-MEL-5 melanoma,2.22 µM
same,GI50,SR leukemia,0.143 µM
same,TGI,SR leukemia,0.677 µM
same,GI50,CAKI-1 renal,3.63 µM
same,TGI,CAKI-1 renal,21.9 µM
same,GI50,SK-OV-3 ovarian,3.55 µM
same,TGI,SK-OV-3 ovarian,13.4 µM
same,GI50,A549 NSCLC,2.46 µM
same,TGI,A549 NSCLC,> 71 µM
same,GI50,HCC-2998 colon,1.23 µM
same,TGI,HCC-2998 colon,2.3 µM
same,GI50,MALME-3M melanoma,1.07 µM
same,TGI,MALME-3M melanoma,4.58 µM
same,GI50,EKVX NSCLC,3.14 µM
same,TGI,EKVX NSCLC,22.2 µM
same,GI50,HL-60(TB) leukemia,0.177 µM
same,TGI,HL-60(TB) leukemia,2.04 µM
same,GI50,PC-3 prostate,1.19 µM
same,TGI,PC-3 prostate,18.8 µM
same,GI50,OVCAR-3 ovarian,1.26 µM
same,TGI,OVCAR-3 ovarian,5.18 µM
same,GI50,IGROV1 ovarian,2.26 µM
same,TGI,IGROV1 ovarian,9.3 µM
same,GI50,NCI/ADR-RES ovarian,8.06 µM
same,TGI,NCI/ADR-RES ovarian,37.2 µM
same,GI50,SN12C renal,2.18 µM
same,TGI,SN12C renal,10.6 µM
same,GI50,HS 578T breast,1.9 µM
same,TGI,HS 578T breast,12 µM
same,GI50,ACHN renal,2.01 µM
same,TGI,ACHN renal,> 71 µM
same,GI50,DU-145 prostate,5.47 µM
same,TGI,DU-145 prostate,62.1 µM
same,GI50,MCF7 breast,0.969 µM
same,TGI,MCF7 breast,15.6 µM
same,GI50,HT29 colon,1.55 µM
same,TGI,HT29 colon,4.86 µM
same,GI50,HCT-15 colon,0.363 µM
same,TGI,HCT-15 colon,4.29 µM
same,GI50,SNB-19 CNS,3.43 µM
same,TGI,SNB-19 CNS,> 71 µM
same,GI50,SF-268 CNS,3.04 µM
same,TGI,SF-268 CNS,> 71 µM
same,GI50,UACC-62 melanoma,1.06 µM
same,TGI,UACC-62 melanoma,2.23 µM
same,GI50,SF-295 CNS,1.98 µM
same,TGI,SF-295 CNS,7.69 µM
same,GI50,NCI-H522 lung,0.493 µM
same,TGI,NCI-H522 lung,1.81 µM
same,GI50,NCI-H23 lung,1.62 µM
same,TGI,NCI-H23 lung,7.44 µM
same,GI50,M14 melanoma,1.33 µM
same,TGI,M14 melanoma,3.86 µM
